The values that follow come from patent US20130273557A1 (priority 2010, published 2013).

Each structure is given as a SMILES string. Entries after “also recorded” stand apart in the source; their conditions may differ.

Usually EC50 stands for the concentration needed to bring the measured effect to its halfway point. Low values mean an effect from little substance, high ones a need for much substance.

One test addresses SMVs (F1FO ATP synthase) (Rattus norvegicus, UniProt P19511+Q06647). The conditions noted are these: 20 μM unlabeled dexpramipexole; non-urea treated SMVs; preliminary experiment.
The subject of a further test is C2C12 cells. It counts as cell-based, mouse. The conditions noted are these: dexpramipexole 30 μM or PSI 30 nM, 18 hr, relative to control. The protocol:
Data are presented as a percentage of the vehicle-treated control ±SEM (n=10 wells at each concentration). […] Experiments commenced 18 hr. after addition of drug. […] Data are presented as a percentage of the vehicle-treated control±SEM (n=14-17 wells for each group).
(§1) The C2C12 mouse myoblast cell line (ATCC, Manasses, Va.) was cultured in Dulbecco's Modified Eagle Medium (DMEM; Gibco®; Carlsbad, Calif.) supplemented with 10% fetal bovine serum (FBS), 2 mM GlutaMax® and penicillin/streptomycin. Cells were maintained in 10% CO2 humidified at 37° C.
Cellular viability was measured using CellTiter-Blue® (Promega Corp., Madison, Wis.) in black-walled optical imaging multiwell plates, and cellular ATP was measured using the CellTiter-Glo® (Promega Corp., Madison, Wis.) luminescence assay in opaque-walled multiwell plates according to the manufacturer's protocol.

The next test deals with C2C12 myoblasts. Nature of the test: OCR and ECAR in C2C12 myoblasts (Seahorse). It counts as cell-based, mouse. The protocol: as §1
OCR and ECAR were measured with a Seahorse® XF24 Flux Analyzer (Seahorse Bioscience, Billerica, Mass.). For PSI experiments on C2C12 cells, basal values were assessed in non-buffered DMEM Assay Medium without glucose, glutamine or pyruvate, and supplemented with 25 mM glucose, 6 mM Glutamax®, and 1 mM sodium pyruvate. […] Succinate and ADP stocks were diluted to 10× concentrations in pre-warmed XF MAS buffer, pH 7.2. Using a Plate Prep Station (Seahorse Bioscience, Billerica, Mass.), cells were washed with 1 mL buffer and were brought to 607 μL with buffer. […] Raw basal OCR and ECAR values were normalized as a percent of the mean control value for each individual experiment. Normalized data from experiments were expressed as mean±SEM.

The target of a further test is complex V (F1FO ATPase) (Rattus norvegicus, UniProt P19511+Q06647). The experiment in a line: ATP hydrolysis in SMVs, luciferin-luciferase assay. In kind it is biochemical. Further details: from tissue; host or cells: rat brain mitochondria, lubrol-insoluble submitochondrial vesicles (SMVs). An excerpt:
3 wells were used for each condition, repeated at least 3× on different SMV isolations.

The target in test [1] is T1, intermediate- and large-conductance channel activity of PSI-mitochondria (Rattus norvegicus, UniProt P19511+Q06647).
T1 sequence (P19511 43-256): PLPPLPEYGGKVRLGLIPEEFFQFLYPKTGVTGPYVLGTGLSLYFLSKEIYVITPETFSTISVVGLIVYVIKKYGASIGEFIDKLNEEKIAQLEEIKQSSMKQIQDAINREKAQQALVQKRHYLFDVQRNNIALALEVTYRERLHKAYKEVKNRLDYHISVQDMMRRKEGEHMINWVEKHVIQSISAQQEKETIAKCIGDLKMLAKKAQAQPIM
T1 sequence (Q06647 24-213): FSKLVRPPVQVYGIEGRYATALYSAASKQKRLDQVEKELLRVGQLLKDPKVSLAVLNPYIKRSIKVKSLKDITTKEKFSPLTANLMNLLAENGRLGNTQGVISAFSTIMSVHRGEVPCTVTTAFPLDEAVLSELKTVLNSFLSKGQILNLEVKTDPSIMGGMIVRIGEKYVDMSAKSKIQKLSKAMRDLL
The experiment in a line: Patch clamp recording of brain-derived PSI-mitochondria. It counts as biochemical. The protocol: Isolation of Brain-derived Mitochondria. Standard techniques were adapted for isolating brain-derived mitochondria. Mitochondria were stored in isolation buffer (IB) at −80° C. For PSI-mitochondria, male Sprague-Dawley rats (6 wo, ˜200 gm, 3-6 rats/group/condition, at least 2 different preparations/experimental paradigm) were injected with the ubiquitin proteasome inhibitor Z-Ile-Glu(OtBu)-Ala-Leu-al (PSI; Peptides International Inc, Kentucky, USA; s.c. every other day for 1 or 2 weeks; 6.0 mg/kg PSI in DMSO, or with DMSO, 200 μL/rat), and mitochondria isolated and stored as above.
Reagents were rapidly perfused into the recording chamber.

Test [2] addresses human F1FO ATP synthase b subunit (Homo sapiens, UniProt P24539). As to conditions: co-incubation in 'cold' dexpramipexole (100 μM).
Description: The human ORF constructs for alpha, beta, b, c, delta, d, epsilon, gamma and OSCP ATP synthase subunits, tagged with Myc and DDK (Flag) tags were from Origene Technologies (Rockville, Md.). 293T cells were transfected with the above constructs, using the calcium phosphate method (Li et al. 2008). On day-3 post transfection, the cells were lysed and the fusion proteins were bound to the EZview™ Red ANTI-FLAG® M2 Affinity Gel (Sigma, USA), according to the manufacturer's protocol. The proteins were eluted from a portion of the samples and presence of the proteins on the beads was verified by immunoblot analysis, using the mouse anti-Myc antibodyies (Cell signaling Technology). […] They were spun at 3000×g in 0.45 um Spin-X centrifugal devices (Corning Life Sciences, USA) for 10 min. The samples were washed three times with PBS and the filter units were incubated in Ultima Gold scintillation liquid (Perkin Elmer Health Sciences, Inc.) overnight. Samples were counted for ^14C, using a Beckman Coulter LS 5000TD scintillation counter.
The subject of a further test is subjects with ALS. The conditions noted are these: double-blind, placebo- and low-dose-controlled 2-part Phase 2; cited from earlier work.
Test [3] has as its system G93A-SOD1 mutant mouse model of ALS. The conditions noted are these: independent laboratory; cited from earlier work.
Test [4] concerns Ca^2+-induced ion conductance in mitochondria. The conditions noted are these: 2 or 20 μM, in 100 μM Ca^2+.
Protocol: Patch-clamp recordings were made from de-energized mitochondria in intracellular solution (120 mM potassium chloride, 8 mM NaCl, 0.5 mM EGTA, 10 mM HEPES, pH adjusted to 7.3) at room temperature (22-25° C.). Pipettes (80-100M0) were filled with the same solution; recordings were made using a Heka 8 amplifier with Vm held at positive voltages up to +180 mV. Data were recorded at 20 kHz and filtered at 500-1000 Hz. […] Reagents were rapidly perfused into the recording chamber. Peak membrane conductance was measured as the peak amount of current (pA) from zero, converted to pS by assuming a linear I-V relationship. Discrete channel conductances were sorted by activity (% occurrence of a conductance level per unit time measured using pCLAMP 10 software, Molecular Devices, Sunnyvale, Calif.); levels defined as closed (no current), small (<200 pS), intermediate (>200 pS and <750 pS) and large (>750 pS). Mean open time (NPo; open time of discrete single channels times the apparent number of single channels in the patch) was used to assess drug effect
Test [5] has as its system single cultured hippocampal neurons. The conditions noted are these: acute application of 10 μM, after 1-5 min. The protocol:
Oxygen uptake was measured in single hippocampal neurons in culture (DIV 14-17). A […] (tip diameter) oxygen-sensing electrode oscillated 10 μm close-to and away-from the cell every 3 sec. The difference in current detected at the two positions was translated into oxygen flux.

Test [6] relates to human neuroblastoma SH-SY5Y cells. The conditions noted are these: MPP^+ or PSI exposure; cited from earlier work.
[7] abbreviates: co-incubation of dexpramipexole 30 μM and PSI 30 nM.

Sequence of human F1FO ATP synthase b subunit (P24539 43-256): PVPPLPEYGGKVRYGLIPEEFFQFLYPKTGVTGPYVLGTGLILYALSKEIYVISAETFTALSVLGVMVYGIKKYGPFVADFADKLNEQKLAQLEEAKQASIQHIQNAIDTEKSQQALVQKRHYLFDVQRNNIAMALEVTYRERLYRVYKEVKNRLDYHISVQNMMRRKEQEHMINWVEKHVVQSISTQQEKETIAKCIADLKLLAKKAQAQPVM
Protocol for SMVs (F1FO ATP synthase): SMVs were washed twice with IB. Filter units were incubated in Ultima Gold scintillation liquid (Perkin Elmer Health Sciences, Inc.) overnight. Samples were counted for ^14C with a Beckman Coulter LS 5000TD scintillation counter.

For `CCCN[C@@H]1CCc2nc(N)sc2C1` [dexpramipexole, (6R)-4,5,6,7-tetrahydro-N-6-propyl-2,6-benzothiazole-diamine], the “reduction in ^14C-dexpramipexole binding by competition” value at SMVs (F1FO ATP synthase) stood at 34%. Moreover, the ATP levels entry with C2C12 cells is given as “neither ATP levels nor cell viability (FIG. 5b) were significantly affected”. Further, in the test on C2C12 myoblasts (setting [7]), the ECAR result is listed as “no increase in ECAR” and the OCR result is “significant decrease in OCR”. Moreover, the OCR entry in the test on C2C12 myoblasts (dexpramipexole 30 μM or PSI 30 nM alone, 18 hr) was “significant decrease in OCR; also recorded: significantly decreased”. On complex V (F1FO ATPase), a half-maximal response (EC50) required 1630 nM. The “Hill slope of concentration-response curve” value in test [1] (NPO inhibition in PSI-mitochondria) is on record as less than 1. In [1] (PSI-mitochondria), the “concentration for full inhibition of aberrant currents (EC100)” value was greater than 10 µM; the “intermediate- and large-conductance channel activity” value is “the inhibition was concentration-dependent and reversible”. The peak conductance entry in test [1] (dexpramipexole 2 μM, CSA 1 μM, PSI-mitochondria) is “significantly and reversibly decreased peak conductance”. Besides, in test [1] (level stated in discussion), the “concentrations producing complete elimination of aberrant currents (EC100)” value was 10 to 30 µM. For the same molecule, in test [2], the “competition of ^14C-dexpramipexole binding to b subunit” value was “significantly reduced binding”. In addition, the trends in efficacy result in the test on subjects with ALS is “reduction of functional decline and decreased mortality”. Also, in [3], the in vivo survival result is “significantly increased in vivo survival”. Further, the mitochondrial membrane currents entry in test [4] is on record as “effectively decreased”. Also, the “decrease in average oxygen flux” value in [5] is on record as roughly 16%. Also, the in vitro cytoprotection entry in [6] is given as “significant concentration-dependent in vitro cytoprotection”.
